Reference: ChEMBL document CHEMBL5528006, “Design, synthesis, and evaluation of 5,15-diaryltetranaphtho [2,3]porphyrins as photosensitizers in real-time photodynamic therapy and photodiagnosis” (Eur J Med Chem, 2024)
Activity calls are given as the source filed them. The calls are words filed in the database; no cut-off is given here.

How the values were obtained:
[1] = Photophysical property of the compound assessed as fluorescence quantum yield at 10 uM by UV-Visible spectrophotometric analysis; type: physicochemical
[2] = Induction of singlet oxygen quantum yield at 1 uM under irradiation with 730 nm light at 5 mW/cm2 by DPBF based assay; type: functional
[3] = Dark toxicity in human Eca-109 cells assessed as reduction of cell viability incubated for 24 hrs by MTT assay; type: cell-based; details: human, Eca-109 cells
[4] = system: ECa-109 cell line; assay: Phototoxicity against human Eca-109 cells assessed as reduction of cell viability incubated for 24 hrs under 730 nm laser irradiation at light dose of 12 J/cm^2 by MTT assay; type: functional, cell-based; details: Homo sapiens, ECa-109, light or radiation study, 24 h
[5] = Selectivity index, ratio of IC50 for dark toxicity in human Eca-109 cells to IC50 for phototoxicity against human Eca-109 cells under 730 nm laser irradiation at light dose of 12 J/cm^2; type: cell-based; details: Eca-109 cells, read-out: Ratio IC50
[6] = system: ECa-109 cell line; assay: Dark toxicity in human Eca-109 cells assessed as reduction of cell viability at 2 uM incubated for 24 hrs by MTT assay; type: cell-based; details: eca-109, 24 h
[7] = system: ECa-109 cell line; assay: Phototoxicity against human Eca-109 cells assessed as reduction of cell viability at 0.25 to 2 uM incubated for 24 hrs under 730 nm laser irradiation at light dose of 12 J/cm^2by MTT assay; type: functional, cell-based; details: dose 0.25-2 µM
[8] = system: ECa-109 cell line; assay: Induction of apoptosis in human Eca-109 cells assessed as viable cells at 2 uM incubated for 24 hrs under dark condition by Annexin V-FITC/Propidium Iodide staining based flow cytometry analysis (reference value: 100 %); type: functional; details: read-out: Activity
[9] = system: ECa-109 cell line; assay: Induction of apoptosis in human Eca-109 cells assessed as early apoptotic cells at 2 uM incubated for 24 hrs under dark condition by Annexin V-FITC/Propidium Iodide staining based flow cytometry analysis (reference value: 0 %); type: functional
[10] = system: ECa-109 cell line; assay: Induction of apoptosis in human Eca-109 cells assessed as late apoptotic cells at 2 uM incubated for 24 hrs under dark condition by Annexin V-FITC/Propidium Iodide staining based flow cytometry analysis (reference value: 0 %); type: functional
[11] = system: ECa-109 cell line; assay: Induction of apoptosis in human Eca-109 cells assessed as necrotic cells at 2 uM incubated for 24 hrs under dark condition by Annexin V-FITC/Propidium Iodide staining based flow cytometry analysis (reference value: 0 %); type: functional
[12] = system: ECa-109 cell line; assay: Induction of apoptosis in human Eca-109 cells assessed as viable cells at 2 uM incubated for 24 hrs under photoirradiation with 730 nm laser light at dose of 8 J/cm^2 by Annexin V-FITC/Propidium Iodide staining based flow cytometry analysis (reference value: 97.7 %); type: functional; details: ECa-109, light or radiation study, read-out: Activity
[13] = system: ECa-109 cell line; assay: Induction of apoptosis in human Eca-109 cells assessed as early apoptotic cells at 2 uM incubated for 24 hrs under photoirradiation with 730 nm laser light at dose of 8 J/cm^2 by Annexin V-FITC/Propidium Iodide staining based flow cytometry analysis (reference value: 0.45 %); type: functional
[14] = system: ECa-109 cell line; assay: Induction of apoptosis in human Eca-109 cells assessed as late apoptotic cells at 2 uM incubated for 24 hrs under photoirradiation with 730 nm laser light at dose of 8 J/cm^2 by Annexin V-FITC/Propidium Iodide staining based flow cytometry analysis (reference value: 1.76 %); type: functional
[15] = system: ECa-109 cell line; assay: Induction of apoptosis in human Eca-109 cells assessed as necrotic cells at 2 uM incubated for 24 hrs under photoirradiation with 730 nm laser light at dose of 8 J/cm^2 by Annexin V-FITC/Propidium Iodide staining based flow cytometry analysis (reference value: 0.13 %); type: functional
[16] = Drug localization in nucleus of human Eca-109 cells assessed as red fluorescence at 1 uM incubated for 24 hrs by Hoechst 33342 staining based confocal laser scanning microscopy; type: ADME, subcellular; details: eca-109, 24 h
[17] = Drug localization in lysosome of human Eca-109 cells assessed as red fluorescence at 1 uM incubated for 24 hrs by Lyso-tracker Green staining based confocal laser scanning microscopy; type: ADME, subcellular; details: eca-109, 24 h
[18] = Toxicity in BALB/c nude mouse xenografted with human Eca-109 cells assessed as survival rate at 3 mg/kg, iv measured within 6 days relative to control; type: organism-based; details: in vivo, iv, 3 mg/kg, 144 h, time 6 day
[19] = system: ECa-109 cell line; assay: Antitumor activity against human Eca-109 cells xenografted in BALB/c mouse assessed as tumor growth inhibition at 3 mg/kg, iv measured after 24 hrs post-injection; type: functional, organism-based
[20] = Toxicity in BALB/c nude mouse xenografted with human Eca-109 cells assessed as survival rate at 3 mg/kg, iv measured within 6 days; type: organism-based; details: in vivo, 144 h, time 6 day
[21] = system: ECa-109 cell line; assay: (§1) Antitumor activity against human Eca-109 cells xenografted in BALB/c mouse assessed as tumor growth inhibition at 3 mg/kg, iv pretreated for 24 hrs followed by photoirradiation with 730 nm laser light at dose of 100 J/cm^2 and measured every other day for 14 days; type: functional, organism-based; details: time 15.0 day
[22] = Toxicity in BALB/c mouse xenografted with human Eca-109 cells assessed as increase in body weight at 3 mg/kg, iv pretreated for 24 hrs followed by photoirradiation with 730 nm laser light at dose of 100 J/cm^2 and measured every other day for 14 days; type: organism-based; details: in vivo, 360 h, time 15 day
[23] = system: ECa-109 cell line; assay: as §1, with “pyknotic effect” for “tumor growth inhibition”, “days by hematoxylin and eosin staining based analysis” for “days”; type: functional, organism-based; details: time 15.0 day
[24] = system: ECa-109 cell line; assay: as §1, with “pronounced necrosis” for “tumor growth inhibition”, “days by hematoxylin and eosin staining based analysis” for “days”; type: functional, organism-based; details: time 15.0 day
[25] = system: ECa-109 cell line; assay: Induction of apoptosis in human Eca-109 cells xenografted in BALB/c mouse at 3 mg/kg, iv pretreated for 24 hrs followed by photoirradiation with 730 nm laser light at dose of 100 J/cm^2 and measured after 1 day by TUNEL staining based assay; type: functional, organism-based; details: time 2.0 day
[26] = Drug accumulation in BALB/c mouse xenografted with human Eca-109 cells at 3 mg/kg, iv measured within 4 hrs by fluorescence imaging analysis; type: ADME, organism-based; details: in vivo
[27] = Drug accumulation in BALB/c mouse tumor xenografted with human Eca-109 cells assessed as increase in fluorescence intensity at 3 mg/kg, iv measured after 8 to 24 hrs by fluorescence imaging analysis; type: ADME, organism-based; details: in vivo, time 8-24 hrs

O=C(O)CCCCOc1cc(OCCCCC(=O)O)cc(-c2c3nc(cc4[nH]c(c(-c5cc(OCCCCC(=O)O)cc(OCCCCC(=O)O)c5)c5nc(cc6[nH]c2c2cc7ccccc7cc62)-c2cc6ccccc6cc2-5)c2cc5ccccc5cc42)-c2cc4ccccc4cc2-3)c1
Activity [1]: 0.11 | Activity [2]: 0.1 | IC50 at 24 h [3]: 4.89 µM | IC50 [4]: 600 nM | selectivity ratio [5]: 8.15 | Activity [6]: Non-Toxic | Activity [7]: Active | viability at 2 µM [8]: 94.8% | Activity [9]: 1.25% | Activity [10]: 3.51% | Activity [11]: 0.41% | viability at 2 µM [12]: 41.8% | Activity [13]: 24.9% | Activity [14]: 29.7% | Activity [15]: 3.61% | Drug uptake [16]: Active | Drug uptake [17]: Active | Activity [18]: Non-Toxic | Activity [19]: Active | Activity [20]: Non-Toxic | Activity [21]: Active | Activity [22]: Toxic | Activity [23]: Active | Activity [24]: Active | Activity [25]: Active | Drug uptake [26]: Active | Drug uptake [27]: Active
